In US10399971B2, “Compound for treating or preventing hyperuricemia or gout” (JIANGSU ATOM BIOSCIENCE AND PHARMACEUTICAL CO., LTD., priority 2015, dated 2019):
“And” between values parts separate entries of the source, which are not always exact repeats. Equal entries are not always repeated. Where two headings read alike, the source gives them in different places.

Key:
in vivo = settings: both, SD, rat, po
Description: Rats were randomly divided into group A1, group B1 and blank control group. Each group has 10 of rats with half male and half female.

[1] = Pharmacokinetics following intravenous and oral administration in SD rats; assay type: in vivo
Description: Dose formulation preparation for PO: Weight out the required amount of compound 74. Added approximately 70% of 0.5% CMC-Na with stirring, vortexing and sonication to mix well until visually well suspension. Then added the remaining vehicle to target total volume and vortex-mix.
Dose formulation preparation for IV: Weight out the required amount of compound 74. Added appropriate DMSO with sonication until dissolved, then added appropriate HP-β-Cyclodextrin water solution (20%, w/v) with vortexing to mix well.
Species: SD rats (SPF Level); sex: male; source: Sino-British SIPPR/BK Lab Animal Ltd., Shanghai.
The animals that dosed via orally were fasted overnight (10-14 hours) prior to oral administration. Food supply to the animals dosed orally were resumed 4 h post-dose.
Blood samples (approximately 250 μL/sample) were collected via jugular vein at Pre-dose and Post-dose (5 min, 15 min, 30 min, 1 h, 2 h, 4 h, 6 h, 8 h, and 24 h). Blood samples were placed into tubes containing sodium heparin and centrifuged conditions at 8000 rpm for 6 minutes at 2-8° C. to separate plasma from the samples. Plasma sample (50 μL) were transferred to tube, then 250 μL IS solution (200 ng/mL Tolbutamide) was added to it. After vortexing for 1 min and centrifuging for 5 min at 15000 rpm, 200 μL aliquots of supernatant were transferred to 96-well plate for LC-MS/MS analysis. The calibration curve of compound 74 was ranging from 1 to 1000 ng/mL. The LLOQ is 1 ng/mL for plasma.
A non-compartemental module of WinNonlin® Professional 5.2 was used to calculate parameters. The bioavailability was calculated as F %=(Dose(IV)×AUC(0-t)(PO))/(Dose(PO)×AUC(0-t)(IV))×100%.

hyperuricemia mice = experiment: Uric acid excretion test in hyperuricemia mice; assay type: in vivo, Kunming mice; settings: 15 mg/kg oral
Description: Species: Kingming mice (Clean Level); body weights: 25 to 30 g; ages: 4 to 5 weeks; sex: male. These mice were purchased from Shanghai SLAC Laboratory Animal Co., Ltd. Certificate No.: SCXK (HU) 2012-2002. Animal quality certificate number: 2015000522173.
A certain amount of adenine and yeast extract powder was weighted and a certain amount of double distilled water was added. The mixture was stirred at about 60° C. for 40 min to give a suspension, which the concentration of yeast extract is 0.6 g/mL and the concentration of adenine is 12 mg/mL.
A suspension of 20 mg/mL potassium oxonate was prepared by mixing a certain amount of potassium oxonate with 0.5% CMC-Na solution before use.
Male Kunming mice were randomly divided into four groups: blank control group, model group, compound 74 group, and benzbromarone group. Each group has six mice. All mice fasted 2 to 3 h before use. The model group, benzbromarone group, and compound 74 group were orally given a suspension of yeast extract and adenine prepared above to reach the final dosage of 10 g/kg (body weight) of yeast extract and 200 mg/kg (body weight) of adenine, respectively. The blank control group was only given same volume of normal saline orally. After 2.5 h, all mice in compound 74 group and benzbromarone group were given 10 mL/kg of suspension of compound 74 (1.5 mg/mL) and 10 mL/kg of suspension of benzbromarone (1.5 mg/mL), respectively. The blank control group and model group were orally given same volume of 0.5% CMC-Na solution. All animals were treated in the same way for seven days by using administration methods described above. On the last day, after administration of a suspension of yeast extract and adenine for the model group, compound 74 group, and benzbromarone group, all mice in these three groups were given 12.5 mL/kg of potassium oxonate (20 mg/mL) by i.p. The blank control was only given same volume of 0.5% CMC-Na solution by i.p. After 30 min, compound 74 and benzbromarone were administrated orally to the mice at same dosages as above in compound 74 group and benzbromarone group, respectively. The blank control group and model group were orally given same volume of 0.5% CMC-Na solution.
Collection of urine samples: All mice were placed in metabolic cages with normal diet individually after giving test compounds on the last day. 24 h urine was collected and the urine volume was measured. The urine was centrifugated at 3000 rpm for 20 min and the supernatant was collected.
Detection of the concentration of uric acid of mice urine samples: uric acid concentration in samples was detected by using uric acid assay kit (phosphotungstic acid method) followed the procedures described in the instruction.

[2] = IV 1 mg/kg, individual rats 201-203, 1 mg/kg
[3] = PO 10 mg/kg, individual rats 101-103, 10 mg/kg

CCc1nc2ccccn2c1C(=O)c1cc(Br)c(O)c(C#N)c1 [Compound 74, 3-bromo-5-(2-ethylimidazo[1,2-a]pyridine-3-carbonyl)-2-hydroxybenzonitrile hydrogen chloride]
MTD at 14 days (in vivo): 5000 mg/kg | Clz ([1]; IV 1 mg/kg, Mean of 3 rats): 1.803 mL/min/kg | AUC(0-t) [1, 2]: 9076.84 ng·h/mL and 8847.27 ng·h/mL | Clz [1, 2]: 1.8372 mL/min/kg and 1.761 mL/min/kg and 1.8108 mL/min/kg | Cmax [1, 2]: 6705.53 ng/mL and 6885.21 ng/mL | MRT(0-∞) [1, 2]: 5.60 h | Vz [1, 2]: 0.91779 L/kg and 0.93449 L/kg | t1/2 [1, 2]: 6.00 h | F (%) ([1]; PO 10 mg/kg vs IV 1 mg/kg, from AUC(0-t), individual rats 101-103): 108.04% and 100.28% | AUC(0-t) [1, 3]: 96188.83 ng·h/mL and 89284.20 ng·h/mL | Cmax [1, 3]: 6976.14 ng/mL and 8251.74 ng/mL | MRT(0-∞) [1, 3]: 6.80 h and 6.00 h | Tmax [1, 3]: 2.00 h and 6.00 h | t1/2 [1, 3]: 3.00 h and 2.70 h | half-life ([1]; male, SD, rat, plasma, iv, 1 mg/kg, IV 1 mg/kg, Mean of 3 rats): 5.8 h | AUC(0-t) ([1]; male, SD, rat, plasma, iv, 1 mg/kg, IV 1 mg/kg, Mean of 3 rats, read-out: AUC(0-t)): 8900 ng·h/mL | Cmax ([1]; male, SD, rat, plasma, iv, 1 mg/kg, IV 1 mg/kg, Mean of 3 rats, read-out: Cmax): 6360 ng/mL | MRT inf ([1]; male, SD, rat, plasma, iv, 1 mg/kg, IV 1 mg/kg, Mean of 3 rats, read-out: MRT(0-∞)): 5.5 h | Tmax ([1]; male, SD, rat, plasma, iv, 1 mg/kg, IV 1 mg/kg, Mean of 3 rats, read-out: Tmax): 0.1 h | Vd ([1]; male, SD, rat, plasma, iv, 1 mg/kg, IV 1 mg/kg, Mean of 3 rats, read-out: Vz): 0.904 L/kg | half-life ([1]; male, SD, rat, plasma, iv, 1 mg/kg, IV 1 mg/kg, individual rats 201-203): 5.4 h | AUC(0-t) ([1]; male, SD, rat, plasma, iv, 1 mg/kg, IV 1 mg/kg, individual rats 201-203, read-out: AUC(0-t)): 8790 ng·h/mL | Cmax ([1]; male, SD, rat, plasma, iv, 1 mg/kg, IV 1 mg/kg, individual rats 201-203, read-out: Cmax): 5490 ng/mL | MRT inf ([1]; male, SD, rat, plasma, iv, 1 mg/kg, IV 1 mg/kg, individual rats 201-203, read-out: MRT(0-∞)): 5.4 h | Tmax ([1]; male, SD, rat, plasma, iv, 1 mg/kg, IV 1 mg/kg, individual rats 201-203, read-out: Tmax): 0.1 h | Vd ([1]; male, SD, rat, plasma, iv, 1 mg/kg, IV 1 mg/kg, individual rats 201-203, read-out: Vz): 0.859 L/kg | bioavailability ([1]; male, SD, rat, plasma, po, 10 mg/kg, PO 10 mg/kg vs IV 1 mg/kg, from AUC(0-t), Mean of 3 rats): 103% | bioavailability ([1]; male, SD, rat, plasma, po, 10 mg/kg, PO 10 mg/kg vs IV 1 mg/kg, from AUC(0-t), individual rats 101-103): 101% | half-life ([1]; male, SD, rat, plasma, po, 10 mg/kg, PO 10 mg/kg, Mean of 3 rats): 2.9 h | AUC(0-t) ([1]; male, SD, rat, plasma, po, 10 mg/kg, PO 10 mg/kg, Mean of 3 rats, read-out: AUC(0-t)): 91800 ng·h/mL | Cmax ([1]; male, SD, rat, plasma, po, 10 mg/kg, PO 10 mg/kg, Mean of 3 rats, read-out: Cmax): 8140 ng/mL | MRT inf ([1]; male, SD, rat, plasma, po, 10 mg/kg, PO 10 mg/kg, Mean of 3 rats, read-out: MRT(0-∞)): 6.3 h | Tmax ([1]; male, SD, rat, plasma, po, 10 mg/kg, PO 10 mg/kg, Mean of 3 rats, read-out: Tmax): 3.3 h | half-life ([1]; male, SD, rat, plasma, po, 10 mg/kg, PO 10 mg/kg, individual rats 101-103): 2.9 h | AUC(0-t) ([1]; male, SD, rat, plasma, po, 10 mg/kg, PO 10 mg/kg, individual rats 101-103, read-out: AUC(0-t)): 89900 ng·h/mL | Cmax ([1]; male, SD, rat, plasma, po, 10 mg/kg, PO 10 mg/kg, individual rats 101-103, read-out: Cmax): 9210 ng/mL | MRT inf ([1]; male, SD, rat, plasma, po, 10 mg/kg, PO 10 mg/kg, individual rats 101-103, read-out: MRT(0-∞)): 5.9 h | uric acid excretion increased compared with the model group (hyperuricemia mice; increase over model group): about 46.77% | Changes of uric acid excretion (compared with model group, %) (hyperuricemia mice; model group set to 100%): 146.77% | Uric acid in urine for 24 h, ±SD (hyperuricemia mice; seven days, 6 mice): 15.69 ± 1.53 mmol
